The supplement of paper PMC10307832

Key:
Assay in all cases: relative viability (nuclei count vs DMSO), 5 days (fraction); higher = more cells survive
XMD14-99 + Trametinib = compound: CN1CCN(CC1)C2=CC(=C(C=C2)NC3=NC(=C(S3)C(=O)C4=C(C=CC=C4Cl)Cl)N)OC [XMD14-99] + CC(=O)Nc1cccc(-n2c(=O)n(C3CC3)c(=O)c3c(Nc4ccc(I)cc4F)n(C)c(=O)c(C)c32)c1 [Trametinib] (partner 0.02 µM)
Outline: (§1)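 Relative viability was taken as the ratio of nuclei in treated wells to nuclei in vehicle wells. Lung cancer cell lines in 1536-well plates received compounds by pin tool one day after seeding, either one drug alone or a fixed anchor-drug dose plus five library-drug doses (not always all listed) in √10 steps. Nuclei were counted on 4× images after 5 days of treatment, and values are medians of duplicate plates.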

AZD1208 = compound: N[C@@H]1CCCN(c2c(/C=C3\SC(=O)NC3=O)cccc2-c2ccccc2)C1 [AZD1208]
Outline: (§2)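 Acceptance criteria were a control CV below 25% and at least one doubling per plate. Lung cancer cell lines in 1536-well plates got five library-drug doses (not always all listed) √10 apart by pinning and were left 5 days with no medium change. Viability divides treated-well nuclei by vehicle-well nuclei and is the median across plates. Nuclei were counted by MetaXpress from 4× Hoechst images.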

XMD14-99 = compound: CN1CCN(CC1)C2=CC(=C(C=C2)NC3=NC(=C(S3)C(=O)C4=C(C=CC=C4Cl)Cl)N)OC [XMD14-99]
Outline: as §2

AZD1208 + Navitoclax = compound: N[C@@H]1CCCN(c2c(/C=C3\SC(=O)NC3=O)cccc2-c2ccccc2)C1 [AZD1208] + CC1(C)CCC(c2ccc(Cl)cc2)=C(CN2CCN(c3ccc(C(=O)NS(=O)(=O)c4ccc(N[C@H](CCN5CCOCC5)CSc5ccccc5)c(S(=O)(=O)C(F)(F)F)c4)cc3)CC2)C1 [Navitoclax] (partner 0.5 µM)
Outline: as §1

| Cell Line | relative viability (XMD14-99 + Trametinib; first compound 0.08 µM) | relative viability (XMD14-99 + Trametinib; first compound 0.8 µM) | relative viability (XMD14-99 + Trametinib; first compound 2.53 µM) | relative viability (XMD14-99 + Trametinib; first compound 8 µM) | relative viability (AZD1208; 0.08 µM) | relative viability (AZD1208; 0.253 µM) | relative viability (AZD1208; 0.8 µM) | relative viability (AZD1208; 2.53 µM) | relative viability (AZD1208; 8 µM) | relative viability (XMD14-99; 0.08 µM) | relative viability (XMD14-99; 0.8 µM) | relative viability (XMD14-99; 2.53 µM) | relative viability (XMD14-99; 8 µM) | relative viability (AZD1208 + Navitoclax; first compound 0.08 µM) | relative viability (AZD1208 + Navitoclax; first compound 0.253 µM) | relative viability (AZD1208 + Navitoclax; first compound 0.8 µM) | relative viability (AZD1208 + Navitoclax; first compound 2.53 µM) | relative viability (AZD1208 + Navitoclax; first compound 8 µM) |
| --- | --- | --- | --- | --- | --- | --- | --- | --- | --- | --- | --- | --- | --- | --- | --- | --- | --- | --- |
| NCI-H2342 | 0.885 | 0.882 | 0.949 | 0.848 | 1.07 | 0.944 | 0.84 | 0.945 | 0.765 | 0.957 | 0.932 | 1.02 | 0.761 | – | – | – | – | – |
| SK-MES-1 | 0.524 | 0.564 | 0.622 | 0.392 | 0.979 | 1.01 | 0.964 | 0.943 | 0.866 | 1.02 | 0.994 | 0.976 | 0.664 | 1.08 | 1.41 | 1.08 | 1.03 | 0.926 |
| NCI-H1993 | 0.593 | 0.522 | 0.614 | 0.54 | 0.931 | 0.779 | 0.808 | 0.818 | 0.733 | 0.89 | 0.987 | 0.872 | 0.806 | – | 0.824 | 0.606 | 0.812 | 0.691 |
| HCC-366 | 0.424 | 0.309 | 0.377 | 0.261 | 1 | 0.996 | 1.03 | 1.01 | 0.993 | 0.988 | 0.996 | 1.01 | 0.894 | 1.1 | 0.965 | 1.02 | 1.05 | 0.927 |
| 201T | 0.693 | 0.709 | 0.691 | 0.664 | 1.05 | 0.99 | 0.952 | 0.933 | 0.939 | 0.993 | 0.986 | 0.99 | 0.804 | 1.24 | 1.23 | 1.25 | 1.24 | 1.31 |
| HCC-827 | 0.539 | 0.529 | 0.542 | 0.432 | 1.08 | 1.08 | 1.05 | 1.08 | 1.01 | 1.06 | 0.972 | 0.961 | 0.881 | 1.05 | 1.11 | 0.984 | 1.07 | 0.983 |
| NCI-H650 | 0.861 | 0.932 | 1.05 | 0.907 | 1.09 | 0.972 | 0.833 | 0.759 | 0.73 | 1.02 | 1 | 0.98 | 0.808 | – | – | – | – | – |
| NCI-H2085 | 0.49 | 0.621 | 0.498 | 0.485 | 0.974 | 1.09 | 0.994 | 1.01 | 1.05 | 1 | 0.978 | 0.961 | 0.837 | 1.02 | 1.29 | 1.13 | 1.14 | 1.02 |
| NCI-H596 | 0.749 | 0.849 | 1.06 | 0.764 | 0.908 | 0.951 | 0.844 | 0.949 | 0.677 | 0.944 | 1.05 | 1.01 | 0.887 | 0.912 | 1.02 | 0.85 | 0.827 | 0.651 |
| SK-LU-1 | 0.538 | 0.502 | 0.473 | 0.309 | 0.988 | 1.15 | 0.932 | 1.05 | 0.922 | 0.987 | 1.04 | 0.948 | 0.7 | 0.56 | 0.874 | 0.883 | 0.774 | 0.813 |
| A-427 | 0.762 | 0.668 | 0.651 | 0.553 | 1.1 | 0.972 | 0.895 | 0.962 | 0.747 | 1.05 | 0.939 | 0.866 | 0.643 | 0.936 | 0.95 | 0.892 | 0.876 | 0.863 |
| NCI-H460 | 0.32 | 0.228 | 0.126 | 0.089 | 0.997 | 1.1 | 0.962 | 0.998 | 1.03 | 1.02 | 0.965 | 0.954 | 0.841 | 1.05 | 1.34 | 1.17 | 1.26 | 1.16 |
| NCI-H1703 | – | – | – | – | 0.846 | 0.881 | 0.846 | 0.718 | 0.654 | 0.89 | 0.912 | 0.91 | 0.761 | 0.98 | 1.19 | 0.88 | 0.878 | 0.783 |
| NCI-H1792 | 0.419 | 0.465 | 0.399 | 0.302 | 1.08 | 1.05 | 0.646 | 0.954 | 0.664 | 1.02 | 0.879 | 0.818 | 0.471 | 0.678 | 0.779 | 0.531 | 0.645 | 0.557 |
| Calu-6 | – | – | – | – | 1 | 1.1 | 0.968 | 1.04 | 0.989 | 0.937 | 0.932 | 0.936 | 0.785 | 0.737 | 0.916 | 0.906 | 0.833 | 0.822 |
